# Results: publication PMC3174345 (Arthritis and rheumatism, 2011)
# Legend:
# [1] = test system: DR0401-IE mice; conditions: mouse, in vivo
# [2] = test system: splenocytes of DR0401-IE mice; assay: 3H-thymidine proliferation recall assay of splenocytes from immunized mice; assay type: cell-based, mouse
substance,measurement,setting,value
"cit-vim59-71: shorter citrullinated vimentin peptide, aa 59-71 (GVYATRSSAVRLR; citrullinated; UniProt P08670 59-71, looked up, fragment)",mice developing signs of ankle swelling or polyarthritis,[1],none
same,proliferative recall response at 13 weeks,[2]; immunized DR0401-IE mice harvested at week 13 (supplemental fig. 1),strong proliferative recall response
same,immunodominant region in in vitro restimulation,"[2]; mice immunized with cit-vim59-78, challenge with short peptides at 5 μg/ml, n=13",immunologically dominant region
